Experimental data taken from US20240228555A9, “ANTIMICROBIAL PEPTIDOMIMETICS” (Basilea Pharmaceutica International AG, Allschwil, priority 2020, published 2024).
Where a SMILES comes first, the peptide text is derived from it. Bridges are numbered along the chain shown (N, C = ends). [ ]: non-standard residue; d: D form. Orn(iPr) = CC(C)NCCC[C@H](N)C(=O)O; Dab(iPr) = CC(C)NCC[C@H](N)C(=O)O; Hyp = O=C(O)[C@@H]1C[C@@H](O)CN1; Pen = CC(C)(S)[C@H](N)C(=O)O; dDab = NCC[C@@H](N)C(=O)O; Dab = NCC[C@H](N)C(=O)O

What was measured:
[1] = system: Klebsiella pneumoniae SSI3010; conditions: SSI3010
Procedure, shortened: (§1)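 First, bacterial colonies are suspended in saline and adjusted to 0.5 McFarland. Next, the suspension is diluted into cation-adjusted Mueller-Hinton II broth (approx. 5×10^5 CFU/mL). Finally, it is added to two-fold serially diluted peptide, with polysorbate 80 at 0.002% final.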

[2] = system: Escherichia coli ATCC 25922; conditions: ATCC 25922
Procedure, shortened: as §1

[3] = system: Escherichia coli MCR-1 Af 45; conditions: Mueller-Hinton broth II, no visible growth after 18-20 hours at 35° C.
Procedure, shortened: as §1

[4] = system: human red blood cells (hRBC); type: cell-based; conditions: red cells of human, 1 h, 0.2 g/L
Procedure, shortened: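 Percent lysis was derived from supernatant absorbance at 540 nm relative to full lysis by 2.5% Triton X-100 (PBS defines 0%). Compounds, 200 μg/mL, were exposed for 1 h at 37° C to a 20% (v/v) suspension of washed human red cells.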

| Compound | Klebsiella pneumoniae SSI3010 MIC [1] | Escherichia coli ATCC 25922 MIC [2] | Escherichia coli MCR-1 Af 45 MIC [3] | Hemolysis at 0.2 g/L [4] |
| --- | --- | --- | --- | --- |
| CC[C@H](C)[C@H](NC(=O)[C@@H]1CCCCN1C(=O)[C@@H](N)C(C)C)C(=O)N[C@H](C(=O)N[C@@H](Cc1ccc(O)cc1)C(=O)N[C@@H]1C(=O)N[C@@H](CC(N)=O)C(=O)N[C@@H](CCCNC(=N)N)C(=O)N[C@@H](CCN)C(=O)N[C@@H]([C@@H](C)O)C(=O)N[C@H](CCN)C(=O)N[C@@H](CCCCN)C(=O)N[C@H](C(=O)N[C@@H](CCN)C(=O)N[C@@H](CCCNC(=N)N)C(=O)N[C@@H](Cc2ccc(O)cc2)C(=O)O)CSSC1(C)C)[C@@H](C)O [Example 132, Val-Pic-Ile-Thr-Tyr-Pen-Asn-Arg-Dab-Thr-^DDab-Lys-Cys-Dab-Arg-Tyr] (HELM PEPTIDE1{V.[O=C([C@@H]1CCCCN1[*:1])[*:2]].I.T.Y.[Pen].N.R.[Dab].T.[NCC[C@@H](N[*:1])C(=O)[*:2]].K.C.[Dab].R.Y}$PEPTIDE1,PEPTIDE1,6:R3-13:R3$$$V2.0) | 0.25 µg/mL | 0.125 µg/mL | 0.125 µg/mL | <1% |
| CC[C@H](C)[C@H](NC(=O)[C@@H]1C[C@@H](O)CN1C(=O)[C@@H](N)C(C)C)C(=O)N[C@H](C(=O)N[C@@H](Cc1ccc(O)cc1)C(=O)N[C@@H]1C(=O)N[C@@H](CC(N)=O)C(=O)N[C@@H](CCCNC(=N)N)C(=O)N[C@@H](CCNC(C)C)C(=O)N[C@@H]([C@@H](C)O)C(=O)N[C@H](CCN)C(=O)N[C@@H](CCCCN)C(=O)N[C@H](C(=O)N[C@@H](CCN)C(=O)N[C@@H](CCCNC(C)C)C(=O)N[C@@H](Cc2ccc(O)cc2)C(=O)O)CSSC1(C)C)[C@@H](C)O [Example 134, Hyp-Ile-Thr-Tyr-Pen-Asn-Arg-Dab(iPr)-Thr-^DDab-Lys-Cys-Dab-Orn(iPr)-Tyr] (H-V[Hyp]ITY[Pen]NR[Dab(iPr)]T[dDab]KC[Dab][Orn(iPr)]Y-OH; disulfide 6-13) | 0.5 µg/mL | 0.125 µg/mL | 0.25 µg/mL | 1% |
| CC[C@H](C)[C@H](NC(=O)[C@@H]1C[C@@H](O)CN1C(=O)[C@@H](N)C(C)C)C(=O)N[C@H](C(=O)N[C@@H](Cc1ccc(O)cc1)C(=O)N[C@@H]1C(=O)N[C@@H](CC(N)=O)C(=O)N[C@@H](CCCNC(=N)N)C(=O)N[C@@H](CCNC(C)C)C(=O)N[C@@H]([C@@H](C)O)C(=O)N[C@H](CCN)C(=O)N[C@@H](CCCCN)C(=O)N[C@H](C(=O)N[C@@H](CCNC(C)C)C(=O)N[C@@H](CCCNC(=N)N)C(=O)N[C@@H](Cc2ccc(O)cc2)C(=O)O)CSSC1(C)C)[C@@H](C)O [Example 135, Hyp-Ile-Thr-Tyr-Pen-Asn-Arg-Dab(iPr)-Thr-^DDab-Lys-Cys-Dab(iPr)-Arg-Tyr] (H-V[Hyp]ITY[Pen]NR[Dab(iPr)]T[dDab]KC[Dab(iPr)]RY-OH; disulfide 6-13) | 0.5 µg/mL | 0.25 µg/mL | 0.25 µg/mL | <1% |
| CC[C@H](C)[C@H](NC(=O)[C@@H]1C[C@@H](O)CN1C(=O)[C@@H](N)C(C)C)C(=O)N[C@H](C(=O)N[C@@H](Cc1ccc(O)cc1)C(=O)N[C@@H]1C(=O)N[C@@H](CC(N)=O)C(=O)N[C@@H](CCCNC(=N)N)C(=O)N[C@@H](CCN)C(=O)N[C@@H]([C@@H](C)O)C(=O)N[C@H](CCN)C(=O)N[C@@H](CCCCN)C(=O)N[C@H](C(=O)N[C@@H](CCN)C(=O)N[C@@H](CCCNC(C)C)C(=O)N[C@@H](Cc2ccc(O)cc2)C(=O)O)CSSC1(C)C)[C@@H](C)O [Example 136, Hyp-Ile-Thr-Tyr-Pen-Asn-Arg-Dab-Thr-^DDab-Lys-Cys-Dab-Orn(iPr)-Tyr] (HELM PEPTIDE1{V.[Hyp].I.T.Y.[Pen].N.R.[Dab].T.[NCC[C@@H](N[*:1])C(=O)[*:2]].K.C.[Dab].[CC(C)NCCC[C@H](N[*:1])C(=O)[*:2]].Y}$PEPTIDE1,PEPTIDE1,6:R3-13:R3$$$V2.0) | 0.5 µg/mL | 0.125 µg/mL | 0.25 µg/mL | <1% |
